Tests used:
cGMP PDE5 = cGMP PDE5 (UniProt O76074); experiment: Phosphodiesterase (PDE) inhibitory activity: in vitro inhibition of cGMP PDE5 (batch method or scintillation proximity assay); details: in vitro activity as inhibitors of cGMP PDE5
Description: Phosphodiesterases 7-11 were generated from full length human recombinant clones transfected into SF9 cells.
In summary, the effect of PDE inhibitors was investigated by assaying a fixed amount of enzyme in the presence of varying inhibitor concentrations and low substrate, (cGMP or cAMP in a 3:1 ratio unlabelled to [^3H]-labeled at a conc ˜1/3 Km) such that IC50≅Ki. The final assay volume was made up to 100 μl with assay buffer [20 mM Tris-HCl pH 7.4, 5 mM MgCl2, 1 mg/ml bovine serum albumin].

SMILES	IC50 (cGMP PDE5) [nM]	melting point [°C]
CCCOc1ncc(I)cc1-c1nc2c(CC)nn(CC(=O)OC(C)(C)C)c2c(=O)[nH]1 [Example 64, tert-butyl [3-ethyl-5-(5-iodo-2-propoxy-3-pyridinyl)-7-oxo-6,7-dihydro-1H-pyrazolo[4,3-d]pyrimidin-1-yl]acetate]	7	
CCCOc1ncc(I)cc1-c1nc2c(CC)n(CC(=O)OC(C)(C)C)nc2c(=O)[nH]1 [Example 65, tert-butyl [3-ethyl-5-(5-iodo-2-propoxy-3-pyridinyl)-7-oxo-6,7-dihydro-2H-pyrazolo[4,3-d]-pyrimidin-2-yl]acetate]	4	
CCCOc1ncc(-c2nnn[nH]2)cc1-c1nc2c(CCC)nn(C)c2c(=O)[nH]1 [Example 71, 1-Methyl-5-[2-propoxy-5-(1H-tetrazol-5-yl)-3-pyridinyl]-3-propyl-1,6-dihydro-7H-pyrazolo[4,3-d]pyrimidin-7-one]	1	
CCCOc1ncc(C#CC(=O)OCC)cc1-c1nc2c(CCC)nn(C)c2c(=O)[nH]1 [Example 72]	0.3	
CCCOc1ncc(-c2cc(O)no2)cc1-c1nc2c(CCC)nn(C)c2c(=O)[nH]1 [Example 73, 5-[5-(3-Hydroxy-5-isoxazolyl)-2-propoxy-3-pyridinyl]-1-methyl-3-propyl-1,6-dihydro-7H-pyrazolo[4,3-d]pyrimidin-7-one]	5	239 to 241
CCCOc1ncc(NCC(=O)O)cc1-c1nc2c(CCC)nn(C)c2c(=O)[nH]1 [Example 75, {[5-(1-Methyl-7-oxo-3-propyl-6,7-dihydro-1H-pyrazolo[4,3-d]pyrimidin-5-yl)-6-propoxy-3-pyridinyl]amino}acetic Acid]	5	
CCCOc1ncc(N(S(C)(=O)=O)S(C)(=O)=O)cc1-c1nc2c(CCC)nn(C)c2c(=O)[nH]1 [Example 76, N-[5-(1-Methyl-7-oxo-3-propyl-6,7-dihydro-1H-pyrazolo[4,3-d]pyrimidin-5-yl)-6-propoxy-3-pyridinyl]-N-(methylsulfonyl)methanesulfonamide]	3	
CCCOc1ncc(NS(C)(=O)=O)cc1-c1nc2c(CCC)nn(C)c2c(=O)[nH]1 [Example 77, N-[5-(1-Methyl-7-oxo-3-propyl-6,7-dihydro-1H-pyrazolo[4,3-d]pyrimidin-5-yl)-6-propoxy-3-pyridinyl]methanesulfonamide]	0.9	
CCCOc1ncc(NC(=O)CC(=O)OC)cc1-c1nc2c(CCC)nn(C)c2c(=O)[nH]1 [Example 78, Methyl 3-{[5-(1-methyl-7-oxo-3-propyl-6,7-dihydro-1H-pyrazolo[4,3-d]-pyrimidin-5-yl)-6-propoxy-3-pyridinyl]amino}-3-oxopropanoate]	0.3	
CCCOc1ncc(NC(=O)CC(=O)O)cc1-c1nc2c(CCC)nn(C)c2c(=O)[nH]1 [Example 79, N-[5-(1-Methyl-7-oxo-3-propyl-6,7-dihydro-1H-pyrazolo[4,3-d]pyrimidin-5-yl)-6-propoxy-3-pyridinyl]-3-oxo-β-alanine]	1.6	261 to 262
CCCOc1ncc(NS(=O)(=O)CC(=O)O)cc1-c1nc2c(CCC)nn(C)c2c(=O)[nH]1 [Example 80, ({[5-(1-Methyl-7-oxo-3-propyl-6,7-dihydro-1H-pyrazolo[4,3-d]pyrimidin-5-yl)-6-propoxy-3-pyridinyl]amino}sulfonyl)acetic Acid]	0.9	267 to 270
CCCOc1ncc(N2CCN(S(=O)(=O)c3ccc(C)cc3)CC2)cc1-c1nc2c(CCC)nn(C)c2c(=O)[nH]1 [Example 81, 1-Methyl-5-(5-{4-[(4-methylphenyl)sulfonyl]-1-piperazinyl}-2-propoxy-3-pyridinyl)-3-propyl-1,6-dihydro-7H-pyrazolo[4,3-d]pyrimidin-7-one]	2	
CCCOc1ncc(NCC(=O)OC)cc1-c1nc2c(CCC)nn(C)c2c(=O)[nH]1 [Example 82, Methyl {[5-(1-Methyl-7-oxo-3-propyl-6,7-dihydro-1H-pyrazolo[4,3-d]pyrimidin-5-yl)-6-propoxy-3-pyridinyl]amino}acetate]	4	175
CCCOc1ncc(NC(C)C(=O)OC)cc1-c1nc2c(CCC)nn(C)c2c(=O)[nH]1 (centres unmarked) [Example 83, Methyl 2-{[5-(1-Methyl-7-oxo-3-propyl-6,7-dihydro-1H-pyrazolo[4,3-d]-pyrimidin-5-yl)-6-propoxy-3-pyridinyl]amino}propanoate]	2	185 to 187
CCCOc1ncc(N[C@@H](C)C(=O)O)cc1-c1nc2c(CCC)nn(C)c2c(=O)[nH]1 [Example 84, N-[5-(1-Methyl-7-oxo-3-propyl-6,7-dihydro-1H-pyrazolo[4,3-d]pyrimidin-5-yl)-6-propoxy-3-pyridinyl]alanine]	7.5	

Source: patent US6756373B1, “Pharmaceutically active compounds” (Pfizer Inc., priority 1999, dated 2004)
